Data taken from ChEMBL document CHEMBL5500381, “Antiviral drug discovery: Pyrimidine entry inhibitors for Zika and dengue viruses” (Eur J Med Chem, 2024).
In brackets after ≈: the same amount, converted by molar mass. Activity calls are given as the source filed them. The calls are words filed in the database; no cut-off is given here.

How the values were obtained:
Zika virus [1] = experiment: Anti-viral activity against ZIKV Argentine strain INEVH116141 infected in african green monkey Vero cells at 0.1 MOI assessed as reduction in […] at 10 uM measured for 10 to 12 hrs by plaque assay; type: functional, organism-based; details: time 10-12 hrs
dengue virus type 2 [2] = experiment: Inhibition of DENV-2 Thailand/16681/1984 strain infection in African green monkey Vero cells assessed as absorption treated with compound for 1 hr during infection at 4 degC; type: functional, organism-based
[3] = Plasma stability in human plasma measured after 24 hrs relative to control; type: ADME, cell-free; details: read-out: Activity
Zika virus [4] = experiment: Inhibition of ZIKV Argentine strain INEVH116141 infection in African green monkey Vero cells assessed as post-internalization (Post-INT) treated after 2 hr post infection measured after 48 hrs; type: functional
[5] = Metabolic stability in mouse liver microsomes assessed as half life at 3 uM in presence of NADPH by HPLC-MS analysis; type: ADME, Microsome
Zika virus [6] = experiment: Anti-viral activity against ZIKV Argentine strain INEVH116141 infected in african green monkey Vero cells at 0.1 MOI assessed as reduction in virus yield measured after 48 hrs by virus reduction assay; type: functional, organism-based
[7] = Selectivity index, ratio of CC50 for cytotoxicity against African green monkey Vero cells to EC50 for anti-viral activity against DENV-2 Thailand/16681/1984 strain; type: toxicity, cell-based; details: read-out: Selectivity Index
[8] = Solubility of the compound in simulated intestinal fluid (SIF,pH 6.8) incubated for 24 hrs by shake-flask method; type: ADME
Zika virus [9] = experiment: Anti-viral activity against ZIKV Argentine strain INEVH116141 infected in african green monkey Vero cells at 0.1 MOI assessed as reduction in […] at 10 uM measured after 48 hrs by epifluorescence microscopy; type: functional, organism-based
dengue virus type 2 [10] = experiment: Anti-viral activity against DENV-2 Thailand/16681/1984 strain infected in african green monkey Vero cells at 0.1 MOI assessed as reduction in fluorescence at 10 uM measured after 48 hrs by epifluorescence microscopy; type: functional, organism-based
[11] = Plasma stability in mouse plasma measured at 4 hrs; type: ADME, cell-free
dengue virus type 2 [12] = experiment: Inhibition of DENV-2 Thailand/16681/1984 strain infection in African green monkey Vero cells assessed as post-internalization (Post-INT) treated after 2 hr post infection measured after 24 hrs; type: functional
dengue virus type 2 [13] = experiment: Anti-viral activity against DENV-2 Thailand/16681/1984 strain infected in African green monkey Vero cells at 0.1 MOI assessed as reduction in viral titer at 10 uM pre-treated for 4 hrs before cellular infection followed by infection 1 hr incubated with compound free culture medium for 48 hrs; type: functional, organism-based
Zika virus [14] = experiment: Anti-viral activity against ZIKV Argentine strain INEVH116141 infected in african green monkey Vero cells at 0.1 MOI assessed as reduction in […] at 10 uM measured for first 8 hrs by plaque assay; type: functional, organism-based
Zika virus [15] = experiment: Anti-viral activity against ZIKV Argentine strain INEVH116141 infected in African green monkey Vero cells at 0.1 MOI assessed as reduction in viral titer at 10 uM pre-treated for 2 hrs before cellular infection followed by infection 1 hr incubated with compound free culture medium for 48 hrs; type: functional, organism-based
[16] = Metabolic stability in mouse liver microsomes assessed as intrinsic clearance at 3 uM in presence of NADPH by HPLC-MS analysis; type: ADME, Microsome
[17] = Selectivity index, ratio of CC50 for cytotoxicity against African green monkey Vero cells to EC50 for anti-viral activity against ZIKV Argentine strain INEVH116141; type: toxicity, cell-based; details: read-out: Selectivity Index
dengue virus type 2 [18] = experiment: Inhibition of DENV-2 Thailand/16681/1984 strain infection in African green monkey Vero cells assessed as post-internalization (Post-INT) treated after 2 hr post infection measured after 48 hrs; type: functional
Zika virus [19] = experiment: Anti-viral activity against ZIKV Argentine strain INEVH116141 infected in African green monkey Vero cells at 0.1 MOI assessed as reduction in viral titer at 10 uM pre-treated for 4 hrs before cellular infection followed by infection 1 hr incubated with compound free culture medium for 48 hrs; type: functional, organism-based
dengue virus type 2 [20] = experiment: Anti-viral activity against DENV-2 Thailand/16681/1984 strain infected in african green monkey Vero cells at 0.1 MOI assessed as reduction in fluorescence at 10 uM measured for 10 to 12 hrs by plaque assay; type: functional, organism-based; details: time 10-12 hrs
[21] = Solubility of the compound in simulated gastric fluid (SGF,pH 1.2) incubated for 24 hrs by shake-flask method; type: ADME
[22] = Permeability of the compound by PAMPA assay; type: ADME
dengue virus type 2 [23] = experiment: Anti-viral activity against DENV-2 Thailand/16681/1984 strain infected in African green monkey Vero cells at 0.1 MOI assessed as reduction in viral titer at 10 uM pre-treated for 2 hrs before cellular infection followed by infection 1 hr incubated with compound free culture medium for 48 hrs; type: functional, organism-based
dengue virus type 2 [24] = experiment: Inhibition of DENV-2 Thailand/16681/1984 strain infection in African green monkey Vero cells assessed as internalization (INT) treated after 1 hr post infection measured after 24 to 48 hrs; type: functional; details: time 24-48 hrs
Zika virus [25] = experiment: Inhibition of ZIKV Argentine strain INEVH116141 infection in African green monkey Vero cells assessed as absorption treated with compound for 1 hr during infection at 4 degC; type: functional, organism-based
Zika virus [26] = experiment: Anti-viral activity against ZIKV Argentine strain INEVH116141 infected in african green monkey Vero cells assessed as reduction in genome level at 10 uM measured after 48 hrs by QRT-PCR analysis; type: functional, organism-based
Zika virus [27] = experiment: Virucidal effect in ZIKV Argentine strain INEVH116141 strain assessed as inactivation of virus at 2.5 to 10 uM measured after 1.5 hrs incubation by viral inactivation assay; type: functional, organism-based; details: dose 2.5-10 µM
[28] = Plasma stability in human plasma measured at 4 hrs; type: ADME, cell-free
dengue virus type 2 [29] = experiment: Virucidal effect in DENV-2 Thailand/16681/1984 strain assessed as inactivation of virus at 2.5 to 10 uM measured after 1.5 hrs incubation by viral inactivation assay; type: functional, organism-based; details: dose 2.5-10 µM
[30] = Cytotoxicity against African green monkey Vero cells assessed as cell viability measured after 72 hrs by MTT assay; type: toxicity, cell-based; details: chlorocebus sabaeus
Zika virus [31] = experiment: Inhibition of ZIKV Argentine strain INEVH116141 infection in African green monkey Vero cells assessed as post-internalization (Post-INT) treated after 2 hr post infection measured after 24 hrs; type: functional
dengue virus type 2 [32] = experiment: Anti-viral activity against DENV-2 Thailand/16681/1984 strain infected in african green monkey Vero cells assessed as reduction in genome level at 10 uM measured after 48 hrs by QRT-PCR analysis; type: functional, organism-based
[33] = Metabolic stability in mouse liver microsomes assessed as degradation at 3 uM in presence of NADPH measured upto 45 mins by HPLC-MS analysis; type: ADME, Microsome; details: read-out: CLH
Zika virus [34] = experiment: Inhibition of ZIKV Argentine strain INEVH116141 infection in African green monkey Vero cells assessed as internalization (INT) treated after 1 hr post infection measured after 48 hrs; type: functional
dengue virus type 2 [35] = experiment: Anti-viral activity against DENV-2 Thailand/16681/1984 strain infected in african green monkey Vero cells at 0.1 MOI assessed as reduction in virus yield measured after 48 hrs by virus reduction assay; type: functional, organism-based; details: Thailand/16681/1984, Vero
dengue virus type 2 [36] = experiment: Anti-viral activity against DENV-2 Thailand/16681/1984 strain infected in african green monkey Vero cells at 0.1 MOI assessed as reduction in fluorescence at 10 uM measured for first 8 hrs by plaque assay; type: functional, organism-based
Zika virus [37] = experiment: Inhibition of ZIKV Argentine strain INEVH116141 infection in African green monkey Vero cells assessed as internalization (INT) treated after 1 hr post infection measured after 24 hrs; type: functional
[38] = Solubility of the compound in phosphate-buffered saline solution (PBS,pH 7.4) incubated for 24 hrs by shake-flask method; type: physicochemical

FC(F)(F)c1cc(NCc2ccc(Cl)cc2)nc(NCCN2CCCCC2)n1
Activity (Zika virus [1]): Active
inhibition (dengue virus type 2 [2]): inactive
remaining at 24 h [3]: 20%
inhibition (INH) (Zika virus [4]): 43.7%
half-life at 3 µM [5]: 8.6 min
EC50 (Zika virus [6]): 2610 nM
selectivity ratio [7]: 20.5
solubility thermodynamic at 24 h [8]: 1690 µg/mL (≈ 4080 µM)
Activity (Zika virus [9]): Active
Activity (dengue virus type 2 [10]): Active
Stability [11]: Stable
inhibition (INH) (dengue virus type 2 [12]): 73.2%
Activity (dengue virus type 2 [13]): Active
Activity (Zika virus [14]): Active
Activity (Zika virus [15]): inactive
CLH [16]: 179 µL/min
selectivity ratio [17]: 9.13
inhibition (INH) (dengue virus type 2 [18]): 85.52%
Activity (Zika virus [19]): Active
Activity (dengue virus type 2 [20]): Active
solubility thermodynamic at 24 h [21]: 76 µg/mL (≈ 184 µM)
permeability [22]: Permeable
Activity (dengue virus type 2 [23]): Active
inhibition (INH) (dengue virus type 2 [24]): <50%
inhibition (Zika virus [25]): inactive
Activity (Zika virus [26]): Active
Activity (Zika virus [27]): inactive
Stability [28]: Stable
Activity (dengue virus type 2 [29]): inactive
CC50 at 72 h [30]: 23800 nM
inhibition (INH) (Zika virus [31]): 44.86%
Activity (dengue virus type 2 [32]): Active
microsomal CLint at 3 µM [33]: 179 µL/min/mg
inhibition (INH) (Zika virus [34]): 29.22%
EC50 (dengue virus type 2 [35]): 1160 nM
Activity (dengue virus type 2 [36]): Active
inhibition (INH) (Zika virus [37]): 26.36%
solubility thermodynamic at 24 h [38]: 507 µg/mL (≈ 1230 µM)
